In data set [1] the test system is cocaine-induced hyperactivity. As to the kind of experiment: Locomotor activity, cocaine-induced hyperactivity. The class given is in vivo, mice. As to conditions: doses higher than 1 mg/kg. The procedure: Locomotor Activity. […] Interruptions of the photocell beams (two banks of eight cells each) were then recorded for the next 30 min. Data were expressed as number of photocell interruptions.

In data set [2] the test system is nicotine-induced antinociception. As to the kind of experiment: Blockade of nicotine-induced antinociception, tail-flick test. The class given is in vivo, mice. As to conditions: for AD50 Tail-Flick: blocking antinociception of nicotine 2.5 mg/kg, systemic administration. The procedure:
Anitinociception. The tail-flick method of D'Amour and Smith (1941) as modified by Dewey et al. (1970) was used. A control response (2-4 s) was determined for each animal before treatment, and a test latency was determined after drug administration. To minimize tissue damage, a maximum latency of 10 s was imposed. Antinociceptive response was calculated as percent maximum possible effect (% MPE), where % MPE=[((test-control)/(10-control))×100], Groups of 8 to 12 animals were used for each dose and for each treatment. Mice were tested 5 min after nicotine administration for the dose-response evaluation. Antagonism studies were carried out by pretreating the mice s.c. with either saline or various drugs at different times before nicotine. The animals were tested 5 min after administration of nicotine.
(§1) Data were analyzed statistically by an analysis of variance followed by the Fisher's P least-significant difference multiple comparison test. The null hypothesis was rejected at the […].

Data set [3] relates to nicotine-induced seizures. As to the kind of experiment: Nicotine-induced seizure activity. The class given is in vivo, mice. The procedure:
Seizure Activity. Following s.c. injection of nicotine at a dose of 9 mg/kg, each animal was placed in a 30 cm×30 cm Plexiglass cage and observed for 5 min. […] This amount of time was chosen because seizures occur very quickly after nicotine administration. Results are expressed as percentage seizure.

Data set [4] concerns discriminative stimulus effect of nicotine. As to the kind of experiment: Nicotine drug discrimination. The class given is in vivo. The note with it: rats.
Procedure: Rats were individually housed in a temperature-controlled environment and were maintained on a diet (Agway Rodent Chow) that restricted their body weight to approximately 85% of their free feeding weight. Water was available ad libitum in the home cages. A two-lever operant drug nation paradigm (VI 15) was carried out in eight operant chambers (4 Lafayette model 80001 and 4 BRS/LVIE model s 002). Reinforcement was a Bioserv 45-mg precision dustless pellet. Data were collected automatically by two Commodore 64 microcomputers.
Rats were placed in an operant chamber 5 min after injections. […] Animals were required to meet a criterion of three successive days of 80% or greater correct-lever responding before testing was initiated. Injections were given 5 min before placing the animal in the operant chamber. The schedule of injections, was determined using a Latin Square design. Dose-response curves were determined for nicotine 5 min after s.c. injections.
Data set [5] relates to nicotine-induced hypothermia. As to the kind of experiment: Blockade of nicotine-induced hypothermia (body temperature). The class given is in vivo, mice. The procedure:
Body Temperature. Rectal temperature was measured by a thermistor probe (inserted 24 mm) and digital thermometer (Yellow Springs Instrument Co., Yellow Springs, Ohio). Readings were taken just before and at 30 min after the s.c. injection of nicotine. For antagonism studies, mice were pretreated with either saline or various drugs 10 min before nicotine. The difference in rectal temperature before and after treatment was calculated for each mouse. The ambient temperature of the laboratory varied from 21 to 24° C. from day to day.
as §1

For data set [6], the system named is nicotine-induced motor impairment. As to the kind of experiment: Blockade of nicotine-induced motor impairment, rotarod test. The class given is in vivo, mice. As to conditions: without nicotine. The procedure:
Motor Coordination. To measure motor coordination, a wooden rod 6 cm in diameter was partitioned into three compartments by circular metal discs (28 cm in diameter) at 18-cm intervals. The rod was attached to a motor and rotated at a rate of 4 rpm. Naive mice were trained until they could remain on the rotarod for 3 min. […] This training took place no longer than 15 min before the s.c. administration of nicotine. Twenty minutes after the injection, mice were placed on the rotarod for 5 min. The amount of time the animals remained on the rotarod was recorded and percent impairment was calculated as % Impairment=[(]-(test time in s/300))×100]. An impairment value of 0% corresponds to the subjects that remained on the rotarod for 5 min (300 s), whereas 100% impairment corresponds to subjects, that fell off the rotarod immediately.
as §1
On the technique in general: In the rotarod test animals must keep their balance on a rotating rod.

Data set [7] has as its target T1, Norepinephrine transporter (Rattus norvegicus, UniProt Q63380).
T1 construct: from tissue; host or cells: brain
As to conditions: brain; read-out: Norepinephrine [3H]Nisoxetime IC50; cited from earlier work.

The target in data set [8] is T2, Dopamine transporter (Rattus norvegicus, UniProt P23977).
T2 construct: from tissue; host or cells: brain
As to conditions: brain; read-out: Dopamine [3H]WIN 35,428 IC50; cited from earlier work.

The target in data set [9] is T3, Serotonin transporter (Rattus norvegicus, UniProt P31652).
T3 construct: from tissue; host or cells: brain
The note with it: brain; read-out: Serotonin [3H]Paroxetine IC50; cited from earlier work.

Entries after “also recorded” stand apart in the source; their conditions may differ. Marks after values point to notes of the source that are not given here.

T1 sequence (Q63380 1-617): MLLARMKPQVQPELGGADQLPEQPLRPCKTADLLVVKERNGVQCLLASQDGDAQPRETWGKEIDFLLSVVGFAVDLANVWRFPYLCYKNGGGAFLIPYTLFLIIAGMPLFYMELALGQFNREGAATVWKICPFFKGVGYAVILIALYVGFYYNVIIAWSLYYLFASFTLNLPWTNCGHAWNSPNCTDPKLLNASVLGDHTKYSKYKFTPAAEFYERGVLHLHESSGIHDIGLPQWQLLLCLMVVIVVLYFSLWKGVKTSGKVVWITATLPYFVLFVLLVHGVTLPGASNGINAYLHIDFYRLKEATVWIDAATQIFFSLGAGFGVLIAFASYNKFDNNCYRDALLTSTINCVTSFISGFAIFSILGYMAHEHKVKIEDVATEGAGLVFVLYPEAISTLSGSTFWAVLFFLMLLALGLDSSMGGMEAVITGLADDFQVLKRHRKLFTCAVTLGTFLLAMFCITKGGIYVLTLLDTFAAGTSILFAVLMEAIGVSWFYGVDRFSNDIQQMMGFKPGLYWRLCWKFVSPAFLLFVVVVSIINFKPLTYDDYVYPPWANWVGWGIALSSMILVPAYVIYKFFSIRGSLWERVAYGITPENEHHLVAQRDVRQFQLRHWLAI
T3 sequence (P31652 whole entry): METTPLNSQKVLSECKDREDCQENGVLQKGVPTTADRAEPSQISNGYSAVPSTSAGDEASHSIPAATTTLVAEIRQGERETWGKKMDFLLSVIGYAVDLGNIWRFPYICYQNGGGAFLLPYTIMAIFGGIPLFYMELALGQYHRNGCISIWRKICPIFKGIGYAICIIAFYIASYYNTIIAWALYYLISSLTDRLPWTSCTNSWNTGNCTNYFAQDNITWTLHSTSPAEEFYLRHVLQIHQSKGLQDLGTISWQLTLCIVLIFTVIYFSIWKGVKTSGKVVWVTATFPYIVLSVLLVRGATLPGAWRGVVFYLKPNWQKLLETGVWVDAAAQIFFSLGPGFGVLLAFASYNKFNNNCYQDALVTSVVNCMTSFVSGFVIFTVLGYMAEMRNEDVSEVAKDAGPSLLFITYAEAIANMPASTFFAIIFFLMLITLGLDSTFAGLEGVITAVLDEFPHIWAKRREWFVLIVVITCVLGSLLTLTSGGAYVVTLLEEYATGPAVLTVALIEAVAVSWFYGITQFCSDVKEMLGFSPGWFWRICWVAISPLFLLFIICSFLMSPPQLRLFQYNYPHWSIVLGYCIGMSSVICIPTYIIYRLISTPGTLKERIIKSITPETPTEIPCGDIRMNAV
T2 sequence (P23977 whole entry): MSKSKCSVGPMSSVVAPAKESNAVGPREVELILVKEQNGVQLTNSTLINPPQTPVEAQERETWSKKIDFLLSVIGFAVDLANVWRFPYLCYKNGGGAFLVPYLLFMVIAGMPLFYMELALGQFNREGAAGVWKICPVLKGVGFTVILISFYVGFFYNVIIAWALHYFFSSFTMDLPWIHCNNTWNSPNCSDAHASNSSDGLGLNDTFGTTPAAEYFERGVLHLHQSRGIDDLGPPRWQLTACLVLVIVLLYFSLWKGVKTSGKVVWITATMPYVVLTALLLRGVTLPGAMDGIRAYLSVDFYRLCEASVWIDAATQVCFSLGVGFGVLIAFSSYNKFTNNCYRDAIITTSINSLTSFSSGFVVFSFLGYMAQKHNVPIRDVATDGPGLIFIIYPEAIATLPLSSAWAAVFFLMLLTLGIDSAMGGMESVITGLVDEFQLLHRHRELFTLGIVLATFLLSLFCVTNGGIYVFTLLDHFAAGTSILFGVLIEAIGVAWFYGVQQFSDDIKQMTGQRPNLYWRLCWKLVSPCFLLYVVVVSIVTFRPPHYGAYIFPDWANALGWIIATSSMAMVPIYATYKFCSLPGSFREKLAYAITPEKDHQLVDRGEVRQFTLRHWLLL

With `CO[C@H]1CC=C2CCN3CCC4=C(CC(=O)OC4)[C@]23C1` [DHβE, Dihydro-β-erythroidine], in data set [1], the “Effect of higher doses on mouse spontaneous activity” value was “significantly decreased mouse spontaneous activity”.
The term ED50 denotes the dose at which the effect has come halfway, by size or by number of responders. Take `CN1CCCC1c1cccnc1` (single isomer, unassigned; (-)) [Nicotine, (−)-Nicotine, reference compound]: the ED50 in data set [2] (Mus musculus, read-out: ED50 value of nicotine, antinociception) is 1.5 mg/kg. For the same compound, the “% Seizures (Mean)” value in [3] (saline pretreatment, nicotine 9 mg/kg challenge) is on record as 100%. Further, the “Drug discrimination % Test (Mean ± SE)” value in data set [4] (saline pretreatment, nicotine 0.4 mg/kg) stood at 87 ± 8%.
For `COC(=O)[C@H]1[C@@H](OC(=O)c2ccccc2)C[C@@H]2CC[C@H]1N2C` [Cocaine], the “Hypothermia, % blockade @ dose” value in data set [5] (@ 32 μmol/hg) turned out to be 20% @ 32. For the same compound, the “AD50 Tail-Flick” value in data set [2] (mice) is recorded as 3.2 μmol/hg. Further, the “% Seizures (Mean)” value is recorded as 83.3% in data set [3] (cocaine 10 mg/kg pretreatment, nicotine 9 mg/kg); 50^c % in data set [3] (cocaine 20 mg/kg pretreatment, nicotine 9 mg/kg, P < .05 from saline/nicotine); 16^c % in data set [3] (cocaine 30 mg/kg pretreatment, nicotine 9 mg/kg, P < .05 from saline/nicotine); 0% in data set [3] (saline pretreatment, cocaine 20 mg/kg challenge). Besides, the “AD50, antagonism of nicotine-induced seizures” value in [3] (mice, estimated) was 50 µmol/kg. In addition, the “Drug discrimination % Test (Mean ± SE)” value in [4] (cocaine 10 mg/kg pretreatment, nicotine 0.4 mg/kg) turned out to be 69 ± 8%; in data set [4] (saline pretreatment, cocaine 10 mg/kg), 17 ± 7%. In data set [6], the “Performance on the rotarod test, by itself” value is given as “did not significantly alter performance”.
Take `CNC1(C)C2CCC(C2)C1(C)C` (stereo not shown) [mecamylamine]: in data set [1], the “Effect of higher doses on mouse spontaneous activity” value is listed as “significantly decreased mouse spontaneous activity”.
Usually IC50 stands for the concentration needed to halve the response being measured. For `COC(=O)[C@H]1[C@@H](c2ccc(Cl)c(C)c2)C[C@@H]2CC[C@H]1N2C` [RTI-112], the IC50 is 0.0362 µM in data set [7], 0.0008 µM in data set [8] and 0.0105 µM in data set [9]. Besides, the “AD50 Hypothermia” value in data set [5] (blocking nicotine-induced hypothermia, mice, systemic administration) came out at 1.5 μmol/hg. In data set [5] (mice), the “Blockade of nicotine-induced hypothermia (in words)” value is on record as “significantly blocked”. Further, the “AD50 Tail-Flick” value in data set [2] (mice) worked out at 3.5 μmol/hg. Further, the “Relative potency in blocking nicotine's antinociceptive effect (in words, comparator in the value)” value in data set [2] (tail-flick, mice) is recorded as “approximately the same activity as cocaine; also recorded: approximately twice as potent as WIN 35,065-2”.

Values taken from patent publication US6479509B1, “Method of promoting smoking cessation” (priority 2000, dated 2002).
